Laboratory results taken from PMC5786306, “An AKAP-Lbc-RhoA interaction inhibitor promotes the translocation of aquaporin-2 to the plasma membrane of renal collecting duct principal cells” (PLoS ONE, 2018).
“Also recorded” adds a separate entry of the source. Where two headings read alike, the source gives them in different places.

Columns and labels:
Nephelometric solubility = type: physicochemical; details: DMEM + 10 % FCS, plasma or biological fluid, kinetic from dmso stock, maximal solubility in DMEM + 10 % FCS
Procedure: Solubility of Scaff10 derivatives was assessed nephelometrically. Scaff10 derivatives are moderately to poorly soluble in aqueous solutions due to their large number of aromatic rings having lipophilic character. Details about NMR, LC/MS and HPLC characterization steps are given in the Supplemental Information.
Suppl. Tab. 3: Overview of all 55 Scaff10 derivatives.Structures labeld with 1 were commercially obtained. MW = molecular weight. logP = calculated partition coefficient (using […]
Solubility was assessed nephelometrically in DMEM + 10 % FCS + Scaff10 derivative with either 0.3 or 2 % DMSO
final concentration; values in µM indicate maximal solubility of the compound under the respective condition. Yield in % indicates total yield of the last step of chemical synthesis
for each of Scaff10 derivatives. n.d. = not determined. n.i. = not indicated.
Scaff10 MW Number of exp. 2 % DMSO 0.3 % DMSO Scaff10 Yield
Structure log P Disruption of the PPI IC50 [µM]
derivative [g/mol] in dupl. [µM] [µM] class [%]

[1] = target: T1, interaction of AKAP-Lbc/DHPH and RhoA (Homo sapiens, UniProt P61586); experiment: Homogeneous time-resolved fluorescence (HTRF) assay; type: binding
T1 construct: His6-AKAP-Lbc/DHPH (aa 1972–2342 of human AKAP-Lbc; NP_006729.4); made in house
T1 sequence (P61586 whole entry, the tested form may be a part): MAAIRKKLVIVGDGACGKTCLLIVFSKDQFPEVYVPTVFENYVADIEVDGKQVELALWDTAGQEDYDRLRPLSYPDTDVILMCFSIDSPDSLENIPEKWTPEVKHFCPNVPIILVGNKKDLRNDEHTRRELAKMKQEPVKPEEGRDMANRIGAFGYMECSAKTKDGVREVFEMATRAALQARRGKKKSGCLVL
Excerpt: Fig 2 The small molecule Scaff10-8 inhibits the interaction of the DH domain of AKAP-Lbc and RhoA. (A). Principle of homogenous time-resolved fluorescence (HTRF) assay. Recombinant His-AKAP-Lbc/DHPH and GST-RhoA were generated. The tags are recognized by specific antibodies coupled to fluorescent dyes. When the two proteins interact, donor and acceptor dyes of the antibodies are in close proximity, energy transfer occurs upon excitation at 320 nm and a FRET signal is detected (665 nm). If a compound disrupts the interaction of the DHPH domain and RhoA, the proximity of the fluorescent moieties remains insufficient for a FRET signal to occur. […] As expected, excess untagged Rho decreases the binding between GST-RhoA and His-AKAP-Lbc/DHPH in a dose-dependent manner (lower left panel). […] (C) The influence of Scaff10-8 on the interaction of RhoA with the recombinant DH domain of AKAP-Lbc in the absence of the PH domain was determined by Alpha screen. […] The IC50 value is indicated.
The assay was essentially carried out as described. Scaff10 derivatives were added to His6-AKAP-Lbc/DHPH protein (250 nM final concentration) in HTRF buffer (PBS; 4 mM MgCl2; 0.05% Tween 20) in 384 well plates (Proxiplate-384 Plus, white, #6008289; Perkin Elmer LAS, Rodgau, Germany). Concentrations of Scaff10 derivatives ranged between 1.56–200 μM (2% DMSO final concentration); HTRF buffer with 2% DMSO served as a control. GST-RhoA (30 nM final concentration) in HTRF buffer and anti-GST antibody coupled to terbium (donor) and anti-His6-tag antibody coupled to XL665 (acceptor) were added to all wells (final antibody concentration: 2 μg/ml). After 1 h incubation at room temperature in the dark, FRET signals were recorded at 620 and 665 nm using a Genios Pro plate reader (Tecan Austria GmbH, Grödig, AT) and the ratios of […] to 620 nm were calculated. Wells containing no compound were set to 100% interaction of AKAP-Lbc/DHPH with RhoA, wells containing GST-RhoA only (without His6-AKAP-Lbc/DHPH) were set to 0% interaction. To exclude any interference of the tags and/or antibodies with Scaff10 derivatives, a His6-GST fusion protein replaced the two tagged proteins in a control assay. Wells containing His6-GST fusion protein were set to 100% interaction of His6-GST, wells containing no fusion protein were set to 0% interaction.

[2] = system: AQP2 localization in MCD4 cells; experiment: Immunofluorescence microscopy of AQP2 in MCD4 cells; type: cell-based, mouse; details: 30 μM
[3] = 0.3 % DMSO final, read-out: Solubility 0.3 % DMSO
[4] = 2 % DMSO final, read-out: Solubility 2 % DMSO

SMILES	solubility (Nephelometric solubility; [3])	solubility (Nephelometric solubility; [4])	inhibitory effect on the AKAP-Lbc/DHPH-RhoA interaction ([1]; HTRF; result in words)	IC50 ([1]; read-out: IC50 ± SEM; Table 1; HTRF; '-' = no IC50, inactive (n.d. is used separately in S3 Table))	IC50 ([1]; Table 1; HTRF; '-' = no IC50, inactive (n.d. is used separately in S3 Table); read-out: IC50 ± SEM)	localization of AQP2 in MCD4 cells [2]	IC50 ([1]; IC50 ± SEM, Table 1; HTRF; '-' = no IC50, inactive (n.d. is used separately in S3 Table))
COc1ccc(-c2coc3cc4oc(=O)c(C)c(C)c4cc23)cc1 [Scaff10, 3-(4-Methoxyphenyl)-5,6-dimethyl-furo[3,2-g]chromen-7-one]	75 µM	85 µM	no inhibitory effect	> 200 µM			
CCOC(=O)CCc1c(C)c2ccc(OCC(=O)c3ccc(OC)cc3)cc2oc1=O [Scaff10-7, Ethyl 3-[7-[2-(4-methoxyphenyl)-2-oxo-ethoxy]-4-methyl-2-oxo-chromen-3-yl]propanoate]	40 µM	70 µM	did not interfere; also recorded: without inhibitory effects		> 200 µM	did not affect the location of AQP2	
COc1ccc(-c2coc3cc4oc(=O)c(CCC(=O)O)c(C)c4cc23)cc1 [Scaff10-8, 3-[3-(4-Methoxyphenyl)-5-methyl-7-oxo-furo[3,2-g]chromen-6-yl] propanoic acid]	30 µM	50 µM				induced cAMP-independently the translocation of AQP2 to the plasma membrane	34.1 ± 1.7 µM
